Measurements from article PMC11729425 (ACS Pharmacology & Translational Science, 2024).

Assays:
[1] = test system: ceramide levels in the gastrocnemius muscle; experiment: Ceramide levels in gastrocnemius muscle after 10 days of treatment; assay type: in vivo, mice; details: 4 mg/kg/d in the food
Experimental: (§1) (A) Schematic representation of the de novo sphingolipid synthesis pathway. (B) Chemical structures of myriocin (MYR) and ALT-007. (C) Heatmap analysis comparing the effects of treatments with the indicated concentrations of MYR and ALT-007 on lipid species in C2C12 cells. N = 3 per group. Data are shown as log2 fold change. (D) Body weight curves of mice treated with ALT-007 or vehicle (4 mg/kg/d for 10 days, in the food). (E) Mean food consumption measurement throughout the treatment. (F) Plasma levels of aspartate transaminase (AST), (G) alanine transaminase (ALT) and (H) creatine kinase (CK) after 10 days of treatment with ALT-007 at 4 mg/kg/day. (I) Ceramide levels measured in the gastrocnemius muscle after 10 days of treatment. N = 8 per group. Quantitative data are expressed as median with min to max values. *P < 0.05, **P < 0.01, ***P < 0.001. […]
(§2) ESI source conditions were used as follows: dry gas temperature, 230 °C; nebulizer, 35 psi and flow rate of 14 L min^–1; sheath gas temperature, 400 °C and flow rate of 12 L min^–1; nozzle voltage, 500 V; and capillary voltage, 4000 V. Dynamic multiple reaction monitoring was used as the acquisition mode with a total cycle time of 500 ms. […] Raw LC–MS/MS data were processed applying Agilent Quantitative Analysis software (version B.07.00, MassHunter Agilent Technologies). […]

[2] = test system: GMC101 and CL2120 amyloid beta expressing animals; experiment: Amyloid beta aggregation in C. elegans (Western blot); assay type: in vivo, Caenorhabditis elegans
Experimental: Figure 5 ALT-007 increases lifespan, improves healthspan and reduces protein aggregation in C. elegans. (A) Median and maximal lifespan of […]. elegans animals treated with ALT-007 or vehicle (5 μM). N = 2 biological replicates with at least 170 animals per group. (B) Paralysis and movement analysis of amyloid beta (Ab)-expressing animals treated with ALT-007 or vehicle (1 μM) at day 1 of adulthood. N = 2 biological replicates with at least 50 animals per group. (C) Amyloid aggregation upon ALT-007 treatment and DMSO as a control in GMC101 and CL2120 amyloid beta expressing animals and their respective controls. N = 3 biological replicates with at least 100 animals per group. (D) Quantification of amyloid beta (Ab) levels upon ALT-007 treatment. The log-rank (Mantel-Cox) test was used to evaluate differences between survival curves as indicated in Supplementary Table 1. two-tailed t-test was performed for two-group analysis and one-way analysis of variance (ANOVA) for three-group analysis. Sample preparation: Synchronized animal populations were collected and washed in M9 buffer. […] Protein samples were analyzed by Tricine-SDS-polyacrylamide gel electrophoresis (SDS-PAGE) and transferred to nitrocellulose membrane. Proteins were detected using the following antibodies under the manufacturer's conditions: antiβ-actin (Sigma) and antiAmyloid-beta, 1-16 (6E10) (BioLegend).

Aged C57BL/6J mice [3] = experiment: Hanging test; assay type: in vivo, C57BL/6JRj mice; details: 1 mg/kg in the food, week 7, normalized to BW
Experimental: Mice were allowed to acclimate to the testing room for 30 min before the experiment. Each mouse was positioned on a wire grid, gripping it with all four limbs. The grid was then inverted, causing the mouse to hang, and the duration it could maintain this position was recorded. The maximum trial length was set at 2 min and 30 s (150 s). The latency to fall was measured five times for each mouse, with 10 min intervals between trials.

[4] = parameters: method as in PMID 29669694; details: compared to Myriocin; cited from earlier work
[5] = test system: immortalized mouse C2C12 myoblasts; experiment: Lipid species (ceramides) in C2C12 cells, LC-MS/MS; assay type: cell-based
Experimental: as §1, §2

Aged C57BL/6J mice [6] = experiment: Metabolic cages (CLAMS): energy expenditure and activity; assay type: in vivo, C57BL/6JRj mice; details: 1 mg/kg in the food, week 19, CLAMS
Experimental: Energy expenditure and activity during day and night were measured using the CLAMS monitoring system (Columbus instruments). Mice were housed in metabolic cages for 48 h.

[7] = test system: C2C12 myoblasts carrying the APPswe mutation and human myoblasts from aged donors and patients with IBM; parameters: method as in PMID 37196064; details: cited from earlier work

## COc1cc(C(=O)N2CC[C@H](NC(=O)c3ccccc3OC(F)(F)F)c3c2cnn3C(C)C)cnc1OC [ALT-007]
[1]
  ceramide levels in the gastrocnemius muscle: effectively decreased ceramide levels with a stronger effect on very long-chain (VLC) species
[2]; CL2120 strain (CL2122 as a control)
  amyloid beta aggregation: reduce aggregation
[2]; GMC101 worms
  amyloid beta aggregates: reducing amyloid beta aggregates
Aged C57BL/6J mice [3]
  maximum hanging time: increased compared to aged control mice
[4]
  aqueous solubility: improved
[5]; C2C12 myoblasts, compared to Myriocin
  potency in lowering ceramide species: superior potency compared to Myriocin
[5]; concentration of 10 nM
  ceramide levels in C2C12 myoblasts: lower ceramide levels
Aged C57BL/6J mice [6]
  energy expenditure (kCal/h) at night: significant increase
Aged C57BL/6J mice [6]; vs aged control
  global physical activity: completely restored the decline in global physical activity
[7]
  protein aggregates: potent effect in reducing protein aggregates
